SMILES strings stand for the structures.

In general, EC50 refers to the concentration that produces a half-maximal response.

human BLT1 receptor, sequence (Q15722 whole entry): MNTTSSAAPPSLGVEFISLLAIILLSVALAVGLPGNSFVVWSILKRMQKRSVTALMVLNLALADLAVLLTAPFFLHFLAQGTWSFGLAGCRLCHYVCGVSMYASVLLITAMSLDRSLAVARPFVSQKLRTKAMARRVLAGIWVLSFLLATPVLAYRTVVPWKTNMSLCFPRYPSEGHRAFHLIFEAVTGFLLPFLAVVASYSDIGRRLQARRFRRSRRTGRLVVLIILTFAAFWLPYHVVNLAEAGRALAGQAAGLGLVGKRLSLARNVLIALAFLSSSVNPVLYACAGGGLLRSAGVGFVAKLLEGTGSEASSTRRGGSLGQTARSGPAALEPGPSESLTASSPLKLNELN

For the assay, the target named is human BLT1 receptor (Homo sapiens (Human), UniProt Q15722). The assay is described as follows: BLT-1 cAMP Assay. The format is cell-based. The conditions noted are these: antagonist mode; HEK293 cells recombinantly expressing human BLT1 receptor; forskolin 4 μM and LTB4 2 nM; cAMP detection. Here is the method:
The ability of compounds to antagonize the human BLT1 receptor was determined using a kit to measure changes in intracellular cyclic AMP levels (cAMP dynamic assay kit, Cisbio Cat. No. 62AM4PEC). HEK293 cells recombinantly expressing human BLT1 receptor, previously frozen in Recovery Medium (Life Technologies, Cat. No. 12648-010) were thawed and diluted into assay medium (HBSS (Hyclone SH 30268.01), 20 mM HEPES (Gibco 15630-106), 800 μM IBMX (Sigma I5879), 0.1% DTPA BSA (Perkin Elmer CR84-100)). The cell suspension was centrifuged at 200×g for 10 min and then resuspended in fresh assay medium to a density of 2.5×10^5 cells/mL. A Labcyte Echo 550 acoustic dispenser was used to transfer 25 nL of test compound dissolved in DMSO into the wells of a dry 384-well plate (Greiner 784075). All subsequent liquid additions were performed using a BIORAPTR (FRD; Beckman Coulter). Next, 5 μL of cell suspension was added and incubated for 20 min. at 37° C. and 5% CO2 in a humidified plastic tray. To test for agonist activity […] of assay buffer containing forskolin (Sigma F-6886. 4 μM for BLT1) was added and incubated for 30 minutes at 37° C. and 5% CO2 in a humidified plastic tray. To test for antagonist activity 5 μL of assay buffer containing forskolin (Sigma F-6886. 4 μM for BLT1) and either LTB4 (Sigma Aldrich L0517; 2 nM BLT1) was added and incubated for 30 minutes at 37° C. and 5% CO2 in a humidified plastic tray.
The levels of cAMP were detected using the CisBio kit following the manufacturer's instructions: cAMP-d2 vial was reconstituted with distilled water and then diluted accordingly with conjugate & lysis buffer. 5 μL of cAMP-d2 working solution was added to all of the wells of the assay plate. cAMP-Cryptate vial was reconstituted with distilled water and then diluted accordingly with conjugate & lysis buffer. 5 μL of cAMP-Cryptate working solution were added to the assay plate. The assay plate was shaken for 3 minutes and incubated at room temperature for 45 minutes, then read on Perkin Elmer Envision. cAMP standard curve and fit data were plotted using a 4 parameter dose response curve fitting algorithm to fit curve. A 4-parameter curve fit (Max, min, log EC50 and slope) was used to transform fluorescent 665 nm/615 nm ratio signal to cAMP concentration. After normalization to treated and untreated controls, the percent effect of signal at each compound concentration was calculated. The plot of percent effect versus the log of compound concentration was fit with a 4-parameter concentration response equation to calculate EC50 values. Compound concentrations tested were 10 000, 3 333, 1 111, 370.4, 123.4, 41.2, 13.7, 4.6, 1.5 and 0.5 nM with 0.25% residual DMSO.
As to `CC(C)(C)S(=O)(=O)NC(=O)c1ccc(F)cc1-c1ccc2c(c1)OC[C@H](Cc1ccccn1)[C@H]2O` (single isomer, unassigned) [Example 14, N-(tert-Butylsulfonyl)-4-fluoro-2-((3S,4R or 3R,4S)-4-hydroxy-3-(pyridin-2-ylmethyl)chroman-7-yl)benzamide], the EC50 was 2 nM.
As for `Cn1nccc1C[C@@H]1COc2cc(-c3ccccc3C(=O)NS(=O)(=O)C3(C)CC3)ccc2[C@H]1O` (racemic) [Example 28, 2-(Rac-trans)-4-Hydroxy-3-((1-methyl-1H-pyrazol-5-yl)methyl)chroman-7-yl)-N-((1-methylcyclopropyl)sulfonyl)benzamide], the figure is 360 nM; as for `O=C(NS(=O)(=O)C1CC1)c1ccccc1-c1ccc2c(c1)OC[C@H](Cc1ccccc1)[C@H]2O` (single isomer, unassigned) [Example 24, 2-((3S,4R or 3R,4S)-3-Benzyl-4-hydroxychroman-7-yl)-N-(cyclopropylsulfonyl)benzamide], 17 nM.
Turning to `CC(C)(C)CS(=O)(=O)NC(=O)c1ccccc1-c1ccc2c(c1)OCC(Cc1ccccn1)C2O` (stereo not drawn) [Example 20, 2-((3,4-trans)-4-Hydroxy-3-(pyridin-2-ylmethyl)chroman-7-yl)-N-(neopentylsulfonyl)benzamide], the EC50 was 44 nM.
On to `CS(=O)(=O)NC(=O)c1ccc(F)cc1-c1ccc2c(c1)OC[C@H](Cc1ccccn1)[C@H]2O` (single isomer, unassigned) [Example 4, 4-Fluoro-2-((3S,4R or 3R,4S)-4-hydroxy-3-(pyridin-2-ylmethyl)chroman-7-yl)-N-(methylsulfonyl)benzamide], for which the EC50 is 93 nM.
As for `CC1(S(=O)(=O)NC(=O)c2ccccc2-c2ccc3c(c2)OC[C@H](Cc2cscn2)[C@H]3O)CC1` (racemic) [Example 25, 2-(Rac-trans)-4-Hydroxy-3-(thiazol-4-ylmethyl)chroman-7-yl)-N-((1-methylcyclopropyl)sulfonyl)benzamide], the EC50 turned out to be 16 nM.
In the case of `C[C@@H](c1ccccn1)C1COc2cc(-c3ccccc3C(=O)NS(=O)(=O)C3(C)CC3)ccc2C1O` (stereo in doubt) [Example 49, 2-((3,4-trans)-4-Hydroxy-3-((R)-1-(pyridin-2-yl)ethyl)chroman-7-yl)-N-((1-methylcyclopropyl)sulfonyl)benzamide] it was 154 nM; in that of `O=C(NS(=O)(=O)C1CC1)c1ccc(F)cc1-c1ccc2c(c1)OC[C@H](Cc1ccccn1)[C@H]2O` (single isomer, unassigned) [Example 16, N-(Cyclopropylsulfonyl)-4-fluoro-2-((3S,4R or 3R,4S)-4-hydroxy-3-(pyridin-2-ylmethyl)chroman-7-yl)benzamide], 4 nM.
Consider `CC1(S(=O)(=O)NC(=O)c2ccccc2-c2ccc3c(c2)OC[C@@H](Cc2ccccc2)[C@@H]3O)CC1` (single isomer, unassigned) [Example 21, 2-((3R,4S or 3S,4R)-3-Benzyl-4-hydroxychroman-7-yl)-N-((1-methylcyclopropyl)sulfonyl)benzamide], for which the half-maximal effective concentration (EC50) stood at 2040 nM.
In the case of `C[C@H](c1ccccn1)C1COc2cc(-c3ccccc3C(=O)NS(=O)(=O)C3(C)CC3)ccc2C1O` (stereo in doubt) [Example 50, 2-((3,4-trans)-4-Hydroxy-3-((S)-1-(pyridin-2-yl)ethyl)chroman-7-yl)-N-((1-methylcyclopropyl)sulfonyl)benzamide] it was 67 nM.
Regarding `O=C(NS(=O)(=O)C(F)(F)F)c1ccc(F)cc1-c1ccc2c(c1)OC[C@H](Cc1ccccn1)[C@H]2O` (single isomer, unassigned) [Example 2, 4-Fluoro-2-((3S,4R or 3R,4S)-4-hydroxy-3-(pyridin-2-ylmethyl)chroman-7-yl)-N-((trifluoromethyl)sulfonyl)benzamide], the EC50 was determined as 6 nM.
With `CC(C)(C)S(=O)(=O)NC(=O)c1ccccc1-c1ccc2c(c1)OC[C@@H](Cc1ccccn1)[C@@H]2O` (single isomer, unassigned) [Example 11, N-(tert-Butylsulfonyl)-2-((3R,4S or 3S,4R)-4-hydroxy-3-(pyridin-2-ylmethyl)chroman-7-yl)benzamide], the half-maximal effective concentration (EC50) turned out to be 144 nM.
`CC1(S(=O)(=O)NC(=O)c2ccccc2-c2ccc3c(c2)OC[C@@H](Cc2coc(-c4ccccc4)n2)[C@@H]3O)CC1` (racemic) [Example 43, 2-(Rac-trans)-4-hydroxy-3-((2-phenyloxazol-4-yl)methy)chroman-7-yl)-N-((1-methylcyclopropyl)sulfonyl)benzamide]: the EC50 turned out to be 19 nM.
Turning to `O=C(NS(=O)(=O)C(F)(F)F)c1ccc(F)cc1-c1ccc2c(c1)OC[C@H](Cc1ccc(-c3ccccc3)cc1)[C@@H]2O` (racemic) [Example 39, 2-((Rac-cis)-3-([1,1′-Biphenyl]-4-ylmethyl)-4-hydroxychroman-7-yl)-4-fluoro-N-((trifluoromethyl)sulfonyl)benzamide], the EC50 is 37 nM.
Take `CC(C)(C)S(=O)(=O)NC(=O)c1ccccc1-c1ccc2c(c1)OC[C@H](Cc1ccccn1)[C@H]2O` (single isomer, unassigned) [Example 12, N-(tert-Butylsulfonyl)-2-((3S,4R or 3R,4S)-4-hydroxy-3-(pyridin-2-ylmethyl)chroman-7-yl)benzamide]: the concentration giving a half-maximal response (EC50) was 17 nM.
Regarding `Cc1nnc(C[C@@H]2COc3cc(-c4ccccc4C(=O)NS(=O)(=O)C(C)(C)C)ccc3[C@H]2O)s1` (racemic) [Example 31, N-(tert-Butylsulfonyl)-2-((rac-trans)-4-hydroxy-3-((5-methyl-1,3,4-thiadiazol-2-yl)methyl)chroman-7-yl)benzamide], the EC50 was determined as 556 nM.
Regarding `CC1(S(=O)(=O)NC(=O)c2ccccc2-c2ccc3c(c2)OC[C@H](Cc2cscn2)[C@H]3O)CC1` (single isomer, unassigned) [Example 27, 2-((3S, 4R or 3R,4S)-4-hydroxy-3-(thiazol-4-ylmethyl)chroman-7-yl)-N-((1-methylcyclopropyl)sulfonyl)benzamide], the 50% effective concentration (EC50) was found to be 26 nM.
In the case of `O=C(NS(=O)(=O)C1CC1)c1ccccc1-c1ccc2c(c1)OC[C@@H](Cc1ccccc1)[C@@H]2O` (single isomer, unassigned) [Example 23, 2-((3R,4S or 3S,4R)-3-Benzyl-4-hydroxychroman-7-yl)-N-(cyclopropylsulfonyl)benzamide] it was 2820 nM; in that of `CC1(S(=O)(=O)NC(=O)c2ccccc2-c2ccc3c(c2)OC[C@@H](Cc2cscn2)[C@@H]3O)CC1` (single isomer, unassigned) [Example 26, 2-((3R, 4S or 3S, 4R)-4-Hydroxy-3-(thiazol-4-ylmethyl)chroman-7-yl)-N-((1-methylcyclopropyl)sulfonyl)benzamide], 770 nM; in that of `CC(C)(C)S(=O)(=O)NC(=O)c1ccccc1-c1ccc2c(c1)OC[C@H](Cc1cscn1)[C@H]2O` (single isomer, unassigned) [Example 34, N-(tert-Butylsulfonyl)-2-((3S,4R or 3R,4S)-4-hydroxy-3-(thiazol-4-ylmethyl)chroman-7-yl)benzamide], 9 nM.
Turning to `CC1(S(=O)(=O)NC(=O)c2ccc(F)cc2-c2ccc3c(c2)OC[C@H](Cc2ccccn2)[C@H]3O)CC1` (single isomer, unassigned) [Example 9, 4-Fluoro-2-((3S,4R or 3R,4S)-4-hydroxy-3-(pyridin-2-ylmethyl)chroman-7-yl)-N-((1-methylcyclopropyl)sulfonyl)benzamide], the concentration giving a half-maximal response (EC50) was 4 nM.
Regarding `Cc1nnc(C[C@@H]2COc3cc(-c4ccccc4C(=O)NS(=O)(=O)C4(C)CC4)ccc3[C@H]2O)s1` (racemic) [Example 29, 2-((Rac-trans)-4-Hydroxy-3-((5-methyl-1,3,4-thiadiazol-2-yl)methyl)chroman-7-yl)-N-((1-methylcyclopropyl)sulfonyl)benzamide], the EC50 is 740 nM.
With `O=C(NS(=O)(=O)C1CC1)c1ccc(F)cc1-c1ccc2c(c1)OC[C@@H](Cc1ccccn1)[C@@H]2O` (single isomer, unassigned) [Example 15, N-(Cyclopropylsulfonyl)-4-fluoro-2-((3R,4S or 3S,4R)-4-hydroxy-3-(pyridin-2-ylmethyl)chroman-7-yl)benzamide], the EC50 was determined as 480 nM.
